Assay results: the kinase profiling compilation of Christmann-Franck et al. (2016)

The molecules below were run against ITK (human) (UniProt Q08881) (assay: radiometric filter-binding kinase assay, Kinase HotSpot). Details: compound 0.5 µM; ATP 10 µM.
ITK (human), sequence (Q08881 whole entry, looked up): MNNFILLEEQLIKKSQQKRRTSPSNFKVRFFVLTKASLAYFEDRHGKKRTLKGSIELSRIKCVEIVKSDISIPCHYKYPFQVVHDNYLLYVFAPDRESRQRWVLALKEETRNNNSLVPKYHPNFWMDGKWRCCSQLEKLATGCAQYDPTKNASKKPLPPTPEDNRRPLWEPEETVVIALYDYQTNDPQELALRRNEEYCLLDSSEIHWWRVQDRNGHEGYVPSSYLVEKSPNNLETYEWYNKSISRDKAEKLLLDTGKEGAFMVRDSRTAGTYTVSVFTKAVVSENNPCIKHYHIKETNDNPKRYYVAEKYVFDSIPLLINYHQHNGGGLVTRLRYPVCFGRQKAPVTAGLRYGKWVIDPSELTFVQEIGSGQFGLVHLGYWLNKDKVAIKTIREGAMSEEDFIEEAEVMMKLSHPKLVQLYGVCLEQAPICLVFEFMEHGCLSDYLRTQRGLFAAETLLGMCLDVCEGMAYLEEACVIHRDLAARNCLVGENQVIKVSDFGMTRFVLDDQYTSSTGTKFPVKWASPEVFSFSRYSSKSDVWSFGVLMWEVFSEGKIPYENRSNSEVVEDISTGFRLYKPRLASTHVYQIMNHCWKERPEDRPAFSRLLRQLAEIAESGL

| SMILES | residual activity [%] |
| --- | --- |
| O=c1[nH]c2ccccc2n1C1CCN(Cc2ccc(-c3nc4cc5[nH]cnc5cc4nc3-c3ccccc3)cc2)CC1 | 99.8 |
| COc1cc2c(cc1OC)-c1[nH]nc(Nc3cccc(F)c3)c1C2 | 85.5 |
| O=c1cc(N2CCOCC2)oc2c(-c3ccccc3)cccc12 | 93.3 |
| COc1cccc(-c2cc(=O)c3ccccc3o2)c1N | 96.5 |

What follows are molecules tested against PKN1 (human) (UniProt Q16512) in the same assay as above. Details: compound 0.5 µM; ATP 10 µM.

| SMILES | residual activity [%] |
| --- | --- |
| O=c1[nH]c2ccccc2n1C1CCN(Cc2ccc(-c3nc4cc5[nH]cnc5cc4nc3-c3ccccc3)cc2)CC1 | 90.3 |
| COc1cc2c(cc1OC)-c1[nH]nc(Nc3cccc(F)c3)c1C2 | 106 |
| O=c1cc(N2CCOCC2)oc2c(-c3ccccc3)cccc12 | 109 |
| COc1cccc(-c2cc(=O)c3ccccc3o2)c1N | 102 |

The molecules below were run against FGFR3 (human) (UniProt P22607) in the same assay as above. Details: compound 0.5 µM; ATP 10 µM.
FGFR3 (human), sequence (P22607 whole entry, looked up): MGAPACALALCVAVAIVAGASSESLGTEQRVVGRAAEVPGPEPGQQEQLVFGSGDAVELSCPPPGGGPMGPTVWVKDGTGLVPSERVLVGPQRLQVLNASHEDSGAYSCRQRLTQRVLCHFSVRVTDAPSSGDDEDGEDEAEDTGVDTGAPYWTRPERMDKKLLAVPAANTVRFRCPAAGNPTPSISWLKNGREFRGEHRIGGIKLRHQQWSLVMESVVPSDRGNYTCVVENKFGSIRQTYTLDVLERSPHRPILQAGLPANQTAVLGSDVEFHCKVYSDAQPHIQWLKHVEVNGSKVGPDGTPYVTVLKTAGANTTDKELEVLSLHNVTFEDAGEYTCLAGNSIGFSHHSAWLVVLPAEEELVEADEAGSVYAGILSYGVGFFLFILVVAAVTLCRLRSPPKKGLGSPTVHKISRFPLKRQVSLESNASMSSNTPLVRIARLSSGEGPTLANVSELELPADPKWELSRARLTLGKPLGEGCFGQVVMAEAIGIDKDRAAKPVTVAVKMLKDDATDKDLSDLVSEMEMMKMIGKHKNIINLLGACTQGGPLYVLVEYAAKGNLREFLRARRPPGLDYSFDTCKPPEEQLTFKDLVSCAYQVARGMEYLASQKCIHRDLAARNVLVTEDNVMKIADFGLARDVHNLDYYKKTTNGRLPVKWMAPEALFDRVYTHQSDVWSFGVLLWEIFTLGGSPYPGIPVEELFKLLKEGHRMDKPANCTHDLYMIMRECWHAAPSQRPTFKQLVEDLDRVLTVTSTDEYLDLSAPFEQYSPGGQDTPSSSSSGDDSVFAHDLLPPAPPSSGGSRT

| SMILES | residual activity [%] |
| --- | --- |
| O=c1[nH]c2ccccc2n1C1CCN(Cc2ccc(-c3nc4cc5[nH]cnc5cc4nc3-c3ccccc3)cc2)CC1 | 101 |
| COc1cc2c(cc1OC)-c1[nH]nc(Nc3cccc(F)c3)c1C2 | 99.6 |
| O=c1cc(N2CCOCC2)oc2c(-c3ccccc3)cccc12 | 95.9 |
| COc1cccc(-c2cc(=O)c3ccccc3o2)c1N | 91 |

These molecules were tested against KIT (human) (UniProt P10721) in the same assay as above. Details: compound 0.5 µM; ATP 10 µM.

| SMILES | residual activity [%] |
| --- | --- |
| O=c1[nH]c2ccccc2n1C1CCN(Cc2ccc(-c3nc4cc5[nH]cnc5cc4nc3-c3ccccc3)cc2)CC1 | 91.7 |
| COc1cc2c(cc1OC)-c1[nH]nc(Nc3cccc(F)c3)c1C2 | 27.9 |
| O=c1cc(N2CCOCC2)oc2c(-c3ccccc3)cccc12 | 92.9 |
| COc1cccc(-c2cc(=O)c3ccccc3o2)c1N | 92.2 |

Each molecule was assayed against MAPK9 (human) (UniProt P45984) in the same assay as above. Details: compound 0.5 µM; ATP 10 µM.
MAPK9 (human), sequence (P45984 whole entry, looked up): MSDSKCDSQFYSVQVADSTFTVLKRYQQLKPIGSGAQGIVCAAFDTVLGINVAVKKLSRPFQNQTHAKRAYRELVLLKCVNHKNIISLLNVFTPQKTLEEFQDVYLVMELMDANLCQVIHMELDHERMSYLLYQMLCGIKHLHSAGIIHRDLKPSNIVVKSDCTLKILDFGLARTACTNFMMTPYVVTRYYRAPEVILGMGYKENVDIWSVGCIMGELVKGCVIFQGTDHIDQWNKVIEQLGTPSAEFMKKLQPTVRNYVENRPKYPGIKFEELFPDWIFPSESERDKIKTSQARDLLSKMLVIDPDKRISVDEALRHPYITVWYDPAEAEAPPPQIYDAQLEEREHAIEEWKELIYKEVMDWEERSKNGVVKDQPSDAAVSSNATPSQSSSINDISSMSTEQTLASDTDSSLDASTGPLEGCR

| SMILES | residual activity [%] |
| --- | --- |
| O=c1[nH]c2ccccc2n1C1CCN(Cc2ccc(-c3nc4cc5[nH]cnc5cc4nc3-c3ccccc3)cc2)CC1 | 91.9 |
| COc1cc2c(cc1OC)-c1[nH]nc(Nc3cccc(F)c3)c1C2 | 75.9 |
| O=c1cc(N2CCOCC2)oc2c(-c3ccccc3)cccc12 | 102 |
| COc1cccc(-c2cc(=O)c3ccccc3o2)c1N | 89.8 |

What follows are molecules tested against PLK3 (human) (UniProt Q9H4B4) in the same assay as above. Details: compound 0.5 µM; ATP 10 µM.
PLK3 (human), sequence (Q9H4B4 whole entry, looked up): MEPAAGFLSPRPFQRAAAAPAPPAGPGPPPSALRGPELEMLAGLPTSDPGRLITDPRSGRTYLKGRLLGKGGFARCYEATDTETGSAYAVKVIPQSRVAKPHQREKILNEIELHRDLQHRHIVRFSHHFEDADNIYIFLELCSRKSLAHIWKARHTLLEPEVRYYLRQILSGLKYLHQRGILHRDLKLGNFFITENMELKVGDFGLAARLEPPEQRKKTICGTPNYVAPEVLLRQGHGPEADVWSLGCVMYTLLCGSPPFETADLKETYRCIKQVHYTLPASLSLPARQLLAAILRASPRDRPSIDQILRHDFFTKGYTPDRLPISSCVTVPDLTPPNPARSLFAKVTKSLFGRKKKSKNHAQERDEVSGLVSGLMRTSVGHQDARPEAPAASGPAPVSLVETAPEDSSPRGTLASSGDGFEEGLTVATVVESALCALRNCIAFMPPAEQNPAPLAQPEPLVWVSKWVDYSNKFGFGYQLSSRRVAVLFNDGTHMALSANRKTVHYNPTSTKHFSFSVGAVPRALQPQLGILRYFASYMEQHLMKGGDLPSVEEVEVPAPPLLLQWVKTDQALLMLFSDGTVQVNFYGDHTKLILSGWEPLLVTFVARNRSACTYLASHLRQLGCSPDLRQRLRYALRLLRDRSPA

| SMILES | residual activity [%] |
| --- | --- |
| O=c1[nH]c2ccccc2n1C1CCN(Cc2ccc(-c3nc4cc5[nH]cnc5cc4nc3-c3ccccc3)cc2)CC1 | 99.1 |
| COc1cc2c(cc1OC)-c1[nH]nc(Nc3cccc(F)c3)c1C2 | 94.9 |
| O=c1cc(N2CCOCC2)oc2c(-c3ccccc3)cccc12 | 71.9 |
| COc1cccc(-c2cc(=O)c3ccccc3o2)c1N | 98 |

These molecules were tested against DAPK2 (human) (UniProt Q9UIK4) in the same assay as above. Details: compound 0.5 µM; ATP 10 µM.

| SMILES | residual activity [%] |
| --- | --- |
| O=c1[nH]c2ccccc2n1C1CCN(Cc2ccc(-c3nc4cc5[nH]cnc5cc4nc3-c3ccccc3)cc2)CC1 | 99 |
| COc1cc2c(cc1OC)-c1[nH]nc(Nc3cccc(F)c3)c1C2 | 86.7 |
| O=c1cc(N2CCOCC2)oc2c(-c3ccccc3)cccc12 | 126 |
| COc1cccc(-c2cc(=O)c3ccccc3o2)c1N | 107 |

Each molecule was assayed against AURKA (human) (UniProt O14965) in the same assay as above. Details: compound 0.5 µM; ATP 10 µM.
AURKA (human), sequence (O14965 whole entry, looked up): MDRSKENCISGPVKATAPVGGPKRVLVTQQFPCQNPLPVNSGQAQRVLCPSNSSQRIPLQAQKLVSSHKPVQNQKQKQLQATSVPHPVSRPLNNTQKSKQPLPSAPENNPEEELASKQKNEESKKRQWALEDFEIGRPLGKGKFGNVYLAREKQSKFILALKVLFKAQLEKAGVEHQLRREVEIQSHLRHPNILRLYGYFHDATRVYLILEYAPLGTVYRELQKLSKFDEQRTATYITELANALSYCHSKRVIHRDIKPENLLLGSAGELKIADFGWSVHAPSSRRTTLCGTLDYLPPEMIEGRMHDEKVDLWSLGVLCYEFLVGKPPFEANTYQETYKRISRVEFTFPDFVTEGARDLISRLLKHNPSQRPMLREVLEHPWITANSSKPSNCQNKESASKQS

| SMILES | residual activity [%] |
| --- | --- |
| O=c1[nH]c2ccccc2n1C1CCN(Cc2ccc(-c3nc4cc5[nH]cnc5cc4nc3-c3ccccc3)cc2)CC1 | 99 |
| COc1cc2c(cc1OC)-c1[nH]nc(Nc3cccc(F)c3)c1C2 | 94.6 |
| O=c1cc(N2CCOCC2)oc2c(-c3ccccc3)cccc12 | 99 |
| COc1cccc(-c2cc(=O)c3ccccc3o2)c1N | 107 |

The molecules below were run against NEK3 (human) (UniProt P51956) in the same assay as above. Details: compound 0.5 µM; ATP 10 µM.

| SMILES | residual activity [%] |
| --- | --- |
| O=c1[nH]c2ccccc2n1C1CCN(Cc2ccc(-c3nc4cc5[nH]cnc5cc4nc3-c3ccccc3)cc2)CC1 | 97.2 |
| COc1cc2c(cc1OC)-c1[nH]nc(Nc3cccc(F)c3)c1C2 | 97.1 |
| O=c1cc(N2CCOCC2)oc2c(-c3ccccc3)cccc12 | 102 |
| COc1cccc(-c2cc(=O)c3ccccc3o2)c1N | 102 |

The molecules below were run against FLT3 (human) (UniProt P36888) in the same assay as above. Details: compound 0.5 µM; ATP 10 µM.

| SMILES | residual activity [%] |
| --- | --- |
| O=c1[nH]c2ccccc2n1C1CCN(Cc2ccc(-c3nc4cc5[nH]cnc5cc4nc3-c3ccccc3)cc2)CC1 | 94.6 |
| COc1cc2c(cc1OC)-c1[nH]nc(Nc3cccc(F)c3)c1C2 | 25 |
| O=c1cc(N2CCOCC2)oc2c(-c3ccccc3)cccc12 | 95.6 |
| COc1cccc(-c2cc(=O)c3ccccc3o2)c1N | 96.3 |

What follows are molecules tested against PDGFRB (human) (UniProt P09619) in the same assay as above. Details: compound 0.5 µM; ATP 10 µM.

| SMILES | residual activity [%] |
| --- | --- |
| O=c1[nH]c2ccccc2n1C1CCN(Cc2ccc(-c3nc4cc5[nH]cnc5cc4nc3-c3ccccc3)cc2)CC1 | 102 |
| COc1cc2c(cc1OC)-c1[nH]nc(Nc3cccc(F)c3)c1C2 | 45.3 |
| O=c1cc(N2CCOCC2)oc2c(-c3ccccc3)cccc12 | 102 |
| COc1cccc(-c2cc(=O)c3ccccc3o2)c1N | 99.4 |

These molecules were tested against PRKACA (human) (UniProt P17612) in the same assay as above. Details: compound 0.5 µM.

| SMILES | residual activity [%] |
| --- | --- |
| O=c1[nH]c2ccccc2n1C1CCN(Cc2ccc(-c3nc4cc5[nH]cnc5cc4nc3-c3ccccc3)cc2)CC1 | 106 |

Same assay, conditions: compound 0.5 µM; ATP 10 µM

| SMILES | residual activity [%] |
| --- | --- |
| COc1cc2c(cc1OC)-c1[nH]nc(Nc3cccc(F)c3)c1C2 | 92.8 |
| O=c1cc(N2CCOCC2)oc2c(-c3ccccc3)cccc12 | 98.3 |
| COc1cccc(-c2cc(=O)c3ccccc3o2)c1N | 87.7 |

These molecules were tested against PRKG2 (human) (UniProt Q13237) in the same assay as above. Details: compound 0.5 µM; ATP 10 µM.

| SMILES | residual activity [%] |
| --- | --- |
| O=c1[nH]c2ccccc2n1C1CCN(Cc2ccc(-c3nc4cc5[nH]cnc5cc4nc3-c3ccccc3)cc2)CC1 | 96.8 |
| COc1cc2c(cc1OC)-c1[nH]nc(Nc3cccc(F)c3)c1C2 | 92.5 |
| O=c1cc(N2CCOCC2)oc2c(-c3ccccc3)cccc12 | 105 |
| COc1cccc(-c2cc(=O)c3ccccc3o2)c1N | 101 |

What follows are molecules tested against AURKB (human) (UniProt Q96GD4) in the same assay as above. Details: compound 0.5 µM; ATP 10 µM.
AURKB (human), sequence (Q96GD4 whole entry, looked up): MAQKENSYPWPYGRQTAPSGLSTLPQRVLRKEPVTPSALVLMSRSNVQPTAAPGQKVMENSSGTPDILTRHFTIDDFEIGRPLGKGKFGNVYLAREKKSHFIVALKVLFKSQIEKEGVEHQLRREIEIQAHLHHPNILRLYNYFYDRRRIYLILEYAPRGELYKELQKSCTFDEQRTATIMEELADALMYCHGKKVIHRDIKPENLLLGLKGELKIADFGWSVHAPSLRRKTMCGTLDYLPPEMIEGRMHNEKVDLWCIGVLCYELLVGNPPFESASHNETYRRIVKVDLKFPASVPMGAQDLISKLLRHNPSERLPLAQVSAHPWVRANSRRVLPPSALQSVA

| SMILES | residual activity [%] |
| --- | --- |
| O=c1[nH]c2ccccc2n1C1CCN(Cc2ccc(-c3nc4cc5[nH]cnc5cc4nc3-c3ccccc3)cc2)CC1 | 98.7 |
| COc1cc2c(cc1OC)-c1[nH]nc(Nc3cccc(F)c3)c1C2 | 79.2 |
| O=c1cc(N2CCOCC2)oc2c(-c3ccccc3)cccc12 | 99.6 |
| COc1cccc(-c2cc(=O)c3ccccc3o2)c1N | 102 |

The molecules below were run against YES1 (human) (UniProt P07947) in the same assay as above. Details: compound 0.5 µM; ATP 10 µM.

| SMILES | residual activity [%] |
| --- | --- |
| O=c1[nH]c2ccccc2n1C1CCN(Cc2ccc(-c3nc4cc5[nH]cnc5cc4nc3-c3ccccc3)cc2)CC1 | 90.8 |
| COc1cc2c(cc1OC)-c1[nH]nc(Nc3cccc(F)c3)c1C2 | 61.3 |
| O=c1cc(N2CCOCC2)oc2c(-c3ccccc3)cccc12 | 101 |
| COc1cccc(-c2cc(=O)c3ccccc3o2)c1N | 93.5 |

Each molecule was assayed against FGFR2 (human) (UniProt P21802) in the same assay as above. Details: compound 0.5 µM; ATP 10 µM.

| SMILES | residual activity [%] |
| --- | --- |
| O=c1[nH]c2ccccc2n1C1CCN(Cc2ccc(-c3nc4cc5[nH]cnc5cc4nc3-c3ccccc3)cc2)CC1 | 94.2 |
| COc1cc2c(cc1OC)-c1[nH]nc(Nc3cccc(F)c3)c1C2 | 100 |
| O=c1cc(N2CCOCC2)oc2c(-c3ccccc3)cccc12 | 95.8 |
| COc1cccc(-c2cc(=O)c3ccccc3o2)c1N | 97.8 |

The molecules below were run against MAPK8 (human) (UniProt P45983) in the same assay as above. Details: compound 0.5 µM; ATP 10 µM.
MAPK8 (human), sequence (P45983 whole entry, looked up): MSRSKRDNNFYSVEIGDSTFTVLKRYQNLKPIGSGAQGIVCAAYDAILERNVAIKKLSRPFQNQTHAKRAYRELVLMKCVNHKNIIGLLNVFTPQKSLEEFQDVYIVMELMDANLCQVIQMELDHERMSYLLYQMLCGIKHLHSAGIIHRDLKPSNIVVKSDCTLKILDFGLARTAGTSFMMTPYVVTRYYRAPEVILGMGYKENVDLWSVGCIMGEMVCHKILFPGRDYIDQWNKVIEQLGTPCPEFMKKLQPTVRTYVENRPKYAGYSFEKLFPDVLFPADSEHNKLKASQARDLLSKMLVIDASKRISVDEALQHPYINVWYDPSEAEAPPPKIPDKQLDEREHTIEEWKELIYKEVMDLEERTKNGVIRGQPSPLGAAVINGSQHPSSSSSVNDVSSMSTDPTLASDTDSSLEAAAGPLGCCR

| SMILES | residual activity [%] |
| --- | --- |
| O=c1[nH]c2ccccc2n1C1CCN(Cc2ccc(-c3nc4cc5[nH]cnc5cc4nc3-c3ccccc3)cc2)CC1 | 89.6 |
| COc1cc2c(cc1OC)-c1[nH]nc(Nc3cccc(F)c3)c1C2 | 85.2 |
| O=c1cc(N2CCOCC2)oc2c(-c3ccccc3)cccc12 | 106 |
| COc1cccc(-c2cc(=O)c3ccccc3o2)c1N | 95.3 |

These molecules were tested against MERTK (human) (UniProt Q12866) in the same assay as above. Details: compound 0.5 µM; ATP 10 µM.

| SMILES | residual activity [%] |
| --- | --- |
| O=c1[nH]c2ccccc2n1C1CCN(Cc2ccc(-c3nc4cc5[nH]cnc5cc4nc3-c3ccccc3)cc2)CC1 | 96.2 |
| COc1cc2c(cc1OC)-c1[nH]nc(Nc3cccc(F)c3)c1C2 | 78.7 |
| O=c1cc(N2CCOCC2)oc2c(-c3ccccc3)cccc12 | 95.2 |
| COc1cccc(-c2cc(=O)c3ccccc3o2)c1N | 98 |

What follows are molecules tested against PRKD2 (human) (UniProt Q9BZL6) in the same assay as above. Details: compound 0.5 µM; ATP 10 µM.
PRKD2 (human), sequence (Q9BZL6 whole entry, looked up): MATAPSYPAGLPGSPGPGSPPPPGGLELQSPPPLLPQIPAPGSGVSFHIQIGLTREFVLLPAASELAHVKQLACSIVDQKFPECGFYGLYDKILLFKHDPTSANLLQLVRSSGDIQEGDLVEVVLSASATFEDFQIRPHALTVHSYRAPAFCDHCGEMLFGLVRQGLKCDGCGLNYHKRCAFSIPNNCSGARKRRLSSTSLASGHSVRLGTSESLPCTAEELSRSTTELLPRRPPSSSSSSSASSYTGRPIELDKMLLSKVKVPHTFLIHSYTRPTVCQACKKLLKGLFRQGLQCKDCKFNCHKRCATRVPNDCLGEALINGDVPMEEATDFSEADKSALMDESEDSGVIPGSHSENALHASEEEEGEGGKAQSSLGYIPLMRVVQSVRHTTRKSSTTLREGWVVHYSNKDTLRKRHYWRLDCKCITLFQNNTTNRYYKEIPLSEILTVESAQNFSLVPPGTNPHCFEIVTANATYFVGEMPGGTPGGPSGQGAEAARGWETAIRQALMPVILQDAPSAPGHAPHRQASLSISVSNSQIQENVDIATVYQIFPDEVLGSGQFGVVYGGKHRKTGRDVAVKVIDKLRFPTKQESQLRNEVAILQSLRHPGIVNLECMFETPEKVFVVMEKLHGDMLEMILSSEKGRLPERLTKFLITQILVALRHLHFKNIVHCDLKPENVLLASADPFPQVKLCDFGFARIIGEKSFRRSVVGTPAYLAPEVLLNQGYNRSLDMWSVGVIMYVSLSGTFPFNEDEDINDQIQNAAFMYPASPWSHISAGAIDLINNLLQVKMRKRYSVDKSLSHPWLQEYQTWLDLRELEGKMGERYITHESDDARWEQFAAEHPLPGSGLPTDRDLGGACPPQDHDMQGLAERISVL

| SMILES | residual activity [%] |
| --- | --- |
| O=c1[nH]c2ccccc2n1C1CCN(Cc2ccc(-c3nc4cc5[nH]cnc5cc4nc3-c3ccccc3)cc2)CC1 | 109 |
| COc1cc2c(cc1OC)-c1[nH]nc(Nc3cccc(F)c3)c1C2 | 96.3 |
| O=c1cc(N2CCOCC2)oc2c(-c3ccccc3)cccc12 | 93.8 |
| COc1cccc(-c2cc(=O)c3ccccc3o2)c1N | 103 |

What follows are molecules tested against MAPK13 (human) (UniProt O15264) in the same assay as above. Details: compound 0.5 µM; ATP 10 µM.
MAPK13 (human), sequence (O15264 whole entry, looked up): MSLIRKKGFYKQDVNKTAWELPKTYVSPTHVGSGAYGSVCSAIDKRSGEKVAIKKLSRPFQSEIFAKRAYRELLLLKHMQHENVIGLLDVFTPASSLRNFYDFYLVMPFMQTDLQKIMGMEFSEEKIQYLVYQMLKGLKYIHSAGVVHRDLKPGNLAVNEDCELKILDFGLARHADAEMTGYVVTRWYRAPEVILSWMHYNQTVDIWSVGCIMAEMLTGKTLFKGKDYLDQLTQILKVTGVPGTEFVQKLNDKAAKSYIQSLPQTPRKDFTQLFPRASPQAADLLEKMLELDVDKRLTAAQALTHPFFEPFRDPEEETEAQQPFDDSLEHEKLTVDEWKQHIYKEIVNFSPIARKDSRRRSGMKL

| SMILES | residual activity [%] |
| --- | --- |
| O=c1[nH]c2ccccc2n1C1CCN(Cc2ccc(-c3nc4cc5[nH]cnc5cc4nc3-c3ccccc3)cc2)CC1 | 102 |
| COc1cc2c(cc1OC)-c1[nH]nc(Nc3cccc(F)c3)c1C2 | 99.7 |
| O=c1cc(N2CCOCC2)oc2c(-c3ccccc3)cccc12 | 93.3 |
| COc1cccc(-c2cc(=O)c3ccccc3o2)c1N | 99.8 |

These molecules were tested against IRAK4 (human) (UniProt Q9NWZ3) in the same assay as above. Details: compound 0.5 µM; ATP 10 µM.

| SMILES | residual activity [%] |
| --- | --- |
| O=c1[nH]c2ccccc2n1C1CCN(Cc2ccc(-c3nc4cc5[nH]cnc5cc4nc3-c3ccccc3)cc2)CC1 | 201 |
| COc1cc2c(cc1OC)-c1[nH]nc(Nc3cccc(F)c3)c1C2 | 70 |
| O=c1cc(N2CCOCC2)oc2c(-c3ccccc3)cccc12 | 96 |
| COc1cccc(-c2cc(=O)c3ccccc3o2)c1N | 86.4 |
